Columns and labels:
[1] = biological target: CYP2C19 (Homo sapiens, UniProt P33261); experiment: in vitro; details: microsomes, pH 7.4, CYP2C19 % of inhibition
[2] = tested on: formalin model; experiment: Formalin test in mice (primary in vivo screening and ED50); set-up: species or system ICR male mice
Description: For primary screening, the synthesized compounds were administered to mice via intraperitoneal injection at a dose of 5 mg/kg using the formalin model. The percentage inhibition in the second phase, relative to the vehicle control (DMSO/cremophor EL/distilled water = 10:10:80), was calculated.
Each compound was assessed using four doses (0.1, 1, 5, and 10 mg/kg) by intraperitoneal injection.
ICR male mice weighing 23–25 g was purchased from Samtako Korea (Osan, Republic of Korea). ICR mice were housed four per cage in a room with 12 h light–dark cycles. The temperature and relative humidity of the room were maintained at 22 ± 2 °C and 50 ± 5%, respectively. Food and water were available ad libitum. The procedures for animal testing were approved by Medifron Animal Care and Use Committees (Approval number; Medifron 2019-9). Efforts were made to minimize animal suffering and to reduce the number of animals used.
Mice were randomly assigned to five groups (four per group) and single-dose drugs were administered by intraperitoneal injection. The formalin-induced licking paw test was modified from the method described by Dubuisson and Dennis. Each mouse was acclimated to an acrylic observation chamber for at least 30 min before the injection of formalin. Twenty microliters of 2% formalin were injected subcutaneously into the right side of the hind paw. Each mouse was then placed in an individual clear plastic observational chamber (15 × 15 × 15 cm, volume = […] or 3.375 L), and the pain response was recorded for a period of 30 min. The summation of time (in seconds) spent in licking and biting responses of the injected paw during each 5 min block was measured as an indicator of the pain response. The first period (early phase) was recorded 0–5 min after the injection of formalin, and the second period (late phase) was recorded 20–30 min after the injection. The test compound was administered intraperitoneally 30 min before the formalin injection at […]: 0.1, 1, 5, and 10 mg/kg. The vehicle was DMSO/Cremophor EL/distilled water (10/10/80). The data were expressed as the mean ± standard error of the mean (SEM). Statistical analysis was assessed by one-way analysis of variance (ANOVA) with Bonferroni’s post hoc test. Statistical significance was set at p-value < 0.05, with values of p <0.001 considered highly significant.

[3] = tested on: spinal nerve ligation (SNL) model; experiment: Spinal nerve ligation (SNL) neuropathic pain model, von Frey paw withdrawal threshold; format: in vivo; details: SNL rats; for maximum possible effect (MPE), withdrawal threshold: 3 h after administration
Text: The SNL model, also known as the Chung model, is a widely used animal model for studying neuropathic pain, a chronic pain condition resulting from nervous system damage. This model replicates human neuropathic pain, which can stem from nerve injuries due to conditions like diabetes, shingles, or spinal cord injury. In the SNL model, the L5 or L6 spinal nerve is surgically ligated to induce nerve injury, leading to the development of long-lasting neuropathic pain symptoms in the animal. Following the nerve injury, animals display pain-related behaviors that mirror those seen in human neuropathic pain conditions, such as allodynia and hyperalgesia. Behavioral assessments conducted 14 days after surgery evaluate the animal’s sensitivity to mechanical stimuli using Von Frey filaments to quantify pain responses and measure mechanical allodynia.
In this experiment, compound 29 was administered intraperitoneally at two different doses, 50 and 100 mg/kg, and its analgesic effects were assessed by measuring the 50% withdrawal threshold at multiple time points (1, 3, and 5 h post-administration) (Figure 3A). […]
Spinal nerve ligation (SNL) was performed following the method described by Kim and Chung. […] Following the surgery, the rats were returned to their cages and monitored during recovery.
Behavioral signs indicative of neuropathic pain (mechanical allodynia) were assessed in all rats for two weeks postoperatively. The paw withdrawal threshold (PWT) was measured using von Frey filaments (Stoelting, Wood Dale, IL, USA) and the up–down method. […] A brisk withdrawal or paw flinching was recorded as a positive response. […]
Figure 3 Antinociceptive effect of compound 29 on mechanical allodynia in SNL model rats. (A) The mechanical allodynia was induced by spinal nerve ligation and evaluated by measuring paw withdrawal thresholds in response to von Frey filament stimuli. […] The MPE was calculated using the following formula: MPE (%) = [(post-treated value − pre-treatment threshold) × 100]/(maximum possible threshold − pre-treatment threshold). Data are expressed as mean ± SEM. […]

Sequence of CYP2C19 (P33261 whole entry): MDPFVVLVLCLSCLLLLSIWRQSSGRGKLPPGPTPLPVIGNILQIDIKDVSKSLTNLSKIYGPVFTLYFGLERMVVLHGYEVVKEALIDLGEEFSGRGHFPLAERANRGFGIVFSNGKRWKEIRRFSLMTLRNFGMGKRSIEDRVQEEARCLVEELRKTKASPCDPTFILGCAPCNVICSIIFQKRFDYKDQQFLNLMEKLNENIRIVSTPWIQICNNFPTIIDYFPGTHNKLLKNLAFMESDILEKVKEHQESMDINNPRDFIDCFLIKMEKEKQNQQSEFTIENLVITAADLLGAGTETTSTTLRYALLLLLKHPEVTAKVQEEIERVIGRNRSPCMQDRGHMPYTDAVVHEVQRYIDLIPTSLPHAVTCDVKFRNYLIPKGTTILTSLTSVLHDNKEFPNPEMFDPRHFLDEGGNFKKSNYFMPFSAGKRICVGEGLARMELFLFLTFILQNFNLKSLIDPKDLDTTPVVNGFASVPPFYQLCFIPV

**Q.** What does the source list for `N#Cc1ccc2[nH]cc(C(=O)NCCN3CCN(c4ccc5ccccc5n4)CC3)c2c1` [Compound 29, 5-Cyano-N-(2-(4-(quinolin-2-yl)piperazin-1-yl)ethyl)-1H-indole-3-carboxamide]?
**A.** inhibition at 15 min, 10 µM [1]: < 50%; ED50 ([2]; Mus musculus, ip, read-out: ED50 in the second phase of the formalin model): 0.78 mg/kg; activity in the first phase of the formalin model ([2]; mice, intraperitoneal, first phase): relatively weak; maximum possible effect (MPE), withdrawal threshold ([3]; 50 mg/kg intraperitoneal): 24%; maximum possible effect (MPE), withdrawal threshold ([3]; 100 mg/kg intraperitoneal): 45%; time of most pronounced analgesic effect (Tmax) ([3]; 50 and 100 mg/kg intraperitoneal): 3 h

— publication PMC11859264, “Discovery of a Novel Multitarget Analgesic Through an In Vivo-Guided Approach” (Pharmaceuticals, 2025)
